Data from PubChem BioAssay AID228 (DTP/NCI, 2004).
“And” between values parts separate entries of the source, which are not always exact repeats. Identical values can stand only once. Inconclusive results are not listed.

System: BDF1 mice, Friend leukemia sc, tumor weight T/C
Test: NCI In Vivo Anticancer Drug Screen. Data for tumor model Friend Virus Leukemia (Solid) (subcutaneous) in B6D2F1 (BDF1) mice
Conditions: endpoint: mean tumor weight, schedule: Q01DX011 (ip), higher = larger tumour
Description: The antitumor activity of compounds was measured in mice bearing transplantable tumors. Survival or tumor size were measured and the results are expressed as the measurement made in the treated group (T) divided by the measurement made in the vehicle treated control group (C). The tumor model used in this assay is Friend Virus Leukemia (Solid) (subcutaneous) in B6D2F1 (BDF1) mice

[1] = dose: 50.0 mg/kg/injection, vehicle: carboxymethylcellulose (CMC)
[2] = dose: 100.0 mg/kg/injection, vehicle: carboxymethylcellulose (CMC)
[3] = dose: 5.0 mg/kg/injection, vehicle: carboxymethylcellulose (CMC)
[4] = dose: 10.0 mg/kg/injection, vehicle: carboxymethylcellulose (CMC)
[5] = dose: 20.0 mg/kg/injection, vehicle: carboxymethylcellulose (CMC)
[6] = dose: 40.0 mg/kg/injection, vehicle: carboxymethylcellulose (CMC)
[7] = dose: 80.0 mg/kg/injection, vehicle: carboxymethylcellulose (CMC)
[8] = dose: 25.0 mg/kg/injection, vehicle: carboxymethylcellulose (CMC)

CCCn1cnc2c(SCc3ccccc3Cl)nc(N)nc21
T/C [1]: 57 % of control
T/C [2]: 41 % of control
T/C (dose: 200.0 mg/kg/injection, vehicle: carboxymethylcellulose (CMC)): 12 % of control
T/C (dose: 400.0 mg/kg/injection, vehicle: carboxymethylcellulose (CMC)): 5 % of control

CCCCn1cnc2c(SC)nc(N)nc21
T/C (dose: 18.75 mg/kg/injection, vehicle: carboxymethylcellulose (CMC)): 120 % of control
T/C (dose: 37.5 mg/kg/injection, vehicle: carboxymethylcellulose (CMC)): 98 % of control
T/C (dose: 75.0 mg/kg/injection, vehicle: carboxymethylcellulose (CMC)): 83 % of control
T/C (dose: 150.0 mg/kg/injection, vehicle: carboxymethylcellulose (CMC)): 63 % of control

CN(N=O)C(=O)Nc1c[nH]c(=O)[nH]c1=O
T/C [3]: 108 % of control
T/C [4]: 93 % of control
T/C [5]: 91 % of control
T/C [6]: 39 % of control
T/C (dose: 60.0 mg/kg/injection, vehicle: carboxymethylcellulose (CMC)): 45 % of control
T/C [7]: 23 % of control

CN(C)C(=S)N=Nc1c(O)[nH]c2ccccc12
T/C (dose: 15.0 mg/kg/injection, vehicle: saline): 76 % of control
T/C (dose: 30.0 mg/kg/injection, vehicle: saline): 105 % of control
T/C (dose: 60.0 mg/kg/injection, vehicle: saline): 85 % of control
T/C (dose: 120.0 mg/kg/injection, vehicle: saline): 54 % of control

Cc1cc(N(CCCl)CCCl)ccc1C=Nc1ccccc1-c1ccccc1
T/C [3]: 54 % of control
T/C [4]: 70 % of control
T/C [5]: 104 % of control
T/C [6]: 60 % of control
T/C [7]: 77 % of control

CNCc1ccccc1
T/C (dose: 43.5 mg/kg/injection, vehicle: saline): 110 % of control
T/C (dose: 87.0 mg/kg/injection, vehicle: saline): 100 % of control

Clc1ccc(N2CCN(CCCN3CCN(c4cccc(Cl)c4)CC3)CC2)cc1
T/C (dose: 7.5 mg/kg/injection, vehicle: carboxymethylcellulose (CMC)): 93 % of control
T/C (dose: 15.0 mg/kg/injection, vehicle: carboxymethylcellulose (CMC)): 85 % of control
T/C (dose: 30.0 mg/kg/injection, vehicle: carboxymethylcellulose (CMC)): 62 % of control

CCn1cnc2c(SC)nc(N)nc21
T/C [8]: 83 % of control
T/C [1]: 73 % of control
T/C [2]: 23 % of control

CC[C@]1(O)C[C@H]2CN(CCc3c([nH]c4ccccc34)[C@@](C(=O)OC)(c3cc4c(cc3OC)N(C)[C@H]3[C@@](O)(C(=O)OC)[C@H](OC(C)=O)[C@]5(CC)C=CCN6CC[C@]43[C@@H]65)C2)C1
T/C (dose: 0.12 mg/kg/injection, vehicle: carboxymethylcellulose (CMC)): 103 % of control
T/C (dose: 0.24 mg/kg/injection, vehicle: carboxymethylcellulose (CMC)): 53 % of control

C1OC1C1CO1 (stereo not given)
T/C (dose: 4.5 mg/kg/injection, vehicle: carboxymethylcellulose (CMC)): 77 % of control
T/C (dose: 9.0 mg/kg/injection, vehicle: carboxymethylcellulose (CMC)): 107 % of control and 115 % of control
T/C (dose: 18.0 mg/kg/injection, vehicle: carboxymethylcellulose (CMC)): 70 % of control and 83 % of control

CCOC(=O)NP(=O)(N1CC1(C)C)N1CC1(C)C (stereo not given)
T/C (dose: 125.0 mg/kg/injection, vehicle: saline): 73 % of control
T/C (dose: 187.0 mg/kg/injection, vehicle: saline): 101 % of control
T/C (dose: 250.0 mg/kg/injection, vehicle: saline): 65 % of control
T/C (dose: 375.0 mg/kg/injection, vehicle: saline): 24 % of control

CSc1ncnc2c1ncn2C1CCCO1 (stereo not given)
T/C (dose: 12.0 mg/kg/injection, vehicle: carboxymethylcellulose (CMC)): 96 % of control
T/C [8]: 45 % of control
T/C [2]: 3 % of control and 9 % of control

Fc1ccc(CSc2ncnc3c2ncn3C2CCCCO2)cc1 (stereo not given)
T/C (dose: 90.0 mg/kg/injection, vehicle: carboxymethylcellulose (CMC)): 10 % of control
T/C (dose: 180.0 mg/kg/injection, vehicle: carboxymethylcellulose (CMC)): 1 % of control
